Experimental data published in patent publication US8357694B2, “Substituted 5,6-dihydro-6-phenylbenzo[F]isoquinolin-2-amine compounds” (ArQule, Inc., priority 2008, dated 2013).

Assays:
Format in all cases: cell-based
[1] = test system: KATO III; test: MTS assay, KATO III
Protocol: (§1) Cells were maintained at 37° C., 5% CO2 in DMEM media supplemented with 1% fetal bovine serum, penicillin/streptomycin and fungizone (Invitrogen). Cells were seeded into 96-well tissue culture plates at 3000 per well and cultured at 37° C. for 18 hours. Test compounds were dissolved and diluted to 300× in DMSO then diluted 1:40 in DMEM.

[2] = test system: DLD-1; test: MTS cell kill, DLD-1
Protocol: as §1

[3] = test system: MDA-MB-231; test: MTS cell kill, MDA-MB-231
Protocol: as §1

[4] = test system: NCI-H1299; test: MTS cell kill, NCI-H1299
Protocol: as §1

[5] = test system: PACA-2; test: MTS cell kill, PACA-2
Protocol: as §1

[6] = test system: PC-3; test: MTS cell kill, PC-3
Protocol: as §1
Note: test concentration or dose not given here.

With `Cc1ccc(S(=O)(=O)Nc2ccc(C3Cc4cnc(NCCCCN(C)C)nc4-c4ccccc43)cc2)c(C)c1` (stereo not drawn) [Example 423, N-[4-(2-{[4-(dimethylamino)butyl]amino}-5,6-dihydrobenzo[h]quinazolin-6-yl)phenyl]-2,4-dimethylbenzenesulfonamide] the “MTS cell kill data (% inhibition) KATO III” value [1] was “A (A = 80-100% inhibition)”, the “MTS cell kill data (% inhibition) DLD-1” value [2] was “A (A = 80-100% inhibition)” and the “MTS cell kill data (% inhibition) MDA-MB-231” value [3] was “A (A = 80-100% inhibition)”. The “MTS cell kill data (% inhibition) NCI-H1299” value [4] was “A (A = 80-100% inhibition)”, the “MTS cell kill data (% inhibition) PACA-2” value [5] was “A (A = 80-100% inhibition)” and the “MTS cell kill data (% inhibition) PC-3” value [6] was “A (A = 80-100% inhibition)”.
With `Cc1cccc(Cl)c1S(=O)(=O)Nc1ccc(C2Cc3cnc(NCCCCN(C)C)nc3-c3ccccc32)cc1` (stereo not drawn) [Example 431, 2-chloro-N-[4-(2-{[4-(dimethylamino)butyl]amino}-5,6-dihydrobenzo[h]quinazolin-6-yl)phenyl]-6-methylbenzenesulfonamide] the “MTS cell kill data (% inhibition) KATO III” value [1] was “A (A = 80-100% inhibition)”, the “MTS cell kill data (% inhibition) DLD-1” value [2] was “A (A = 80-100% inhibition)” and the “MTS cell kill data (% inhibition) MDA-MB-231” value [3] was “A (A = 80-100% inhibition)”. The “MTS cell kill data (% inhibition) NCI-H1299” value [4] was “A (A = 80-100% inhibition)”, the “MTS cell kill data (% inhibition) PACA-2” value [5] was “A (A = 80-100% inhibition)” and the “MTS cell kill data (% inhibition) PC-3” value [6] was “B (B = 50-79% inhibition)”.
With `CN(C)CCCCNc1ncc2c(n1)-c1ccccc1C(c1ccc(NS(=O)(=O)c3ccc(C(C)(C)C)cc3)cc1)C2` (stereo not drawn) [Example 435, 4-tert-butyl-N-[4-(2-{[4-(dimethylamino)butyl]amino}-5,6-dihydrobenzo[h]quinazolin-6-yl)phenyl]benzenesulfonamide] the “MTS cell kill data (% inhibition) KATO III” value [1] was “A (A = 80-100% inhibition)”, the “MTS cell kill data (% inhibition) DLD-1” value [2] was “A (A = 80-100% inhibition)” and the “MTS cell kill data (% inhibition) MDA-MB-231” value [3] was “A (A = 80-100% inhibition)”. For the same molecule, the “MTS cell kill data (% inhibition) NCI-H1299” value [4] was “A (A = 80-100% inhibition)”, the “MTS cell kill data (% inhibition) PACA-2” value [5] was “A (A = 80-100% inhibition)” and the “MTS cell kill data (% inhibition) PC-3” value [6] was “A (A = 80-100% inhibition)”.
For `CN(C)CCCCNc1ncc2c(n1)-c1ccccc1C(c1ccc(NS(=O)(=O)c3cccc4cccnc34)cc1)C2` (stereo not drawn) [Example 434, N-[4-(2-{[4-(dimethylamino)butyl]amino}-5,6-dihydrobenzo[h]quinazolin-6-yl)phenyl]quinoline-8-sulfonamide], the “MTS cell kill data (% inhibition) KATO III” value [1] was “A (A = 80-100% inhibition)”, the “MTS cell kill data (% inhibition) DLD-1” value [2] was “A (A = 80-100% inhibition)” and the “MTS cell kill data (% inhibition) MDA-MB-231” value [3] was “A (A = 80-100% inhibition)”. The “MTS cell kill data (% inhibition) NCI-H1299” value [4] was “A (A = 80-100% inhibition)”, the “MTS cell kill data (% inhibition) PACA-2” value [5] was “A (A = 80-100% inhibition)” and the “MTS cell kill data (% inhibition) PC-3” value [6] was “A (A = 80-100% inhibition)”.
For `CN(C)CCCCNc1ncc2c(n1)-c1ccccc1C(c1ccc(NS(=O)(=O)c3ccc(-c4ccccc4)cc3)cc1)C2` (stereo not drawn) [Example 421, N-[4-(2-{[4-(dimethylamino)butyl]amino}-5,6-dihydrobenzo[h]quinazolin-6-yl)phenyl]biphenyl-4-sulfonamide], the “MTS cell kill data (% inhibition) KATO III” value [1] was “A (A = 80-100% inhibition)”, the “MTS cell kill data (% inhibition) DLD-1” value [2] was “A (A = 80-100% inhibition)” and the “MTS cell kill data (% inhibition) MDA-MB-231” value [3] was “A (A = 80-100% inhibition)”. The “MTS cell kill data (% inhibition) NCI-H1299” value [4] was “A (A = 80-100% inhibition)”, the “MTS cell kill data (% inhibition) PACA-2” value [5] was “A (A = 80-100% inhibition)” and the “MTS cell kill data (% inhibition) PC-3” value [6] was “A (A = 80-100% inhibition)”.
`CN(C)CCCCNc1ncc2c(n1)-c1ccccc1C(c1ccc(NC(=O)c3ccccc3Br)cc1)C2` (stereo not drawn) [Example 466, 2-bromo-N-[4-(2-{[4-(dimethylamino)butyl]amino}-5,6-dihydrobenzo[h]quinazolin-6-yl)phenyl]benzamide] was tested, and the “MTS cell kill data (% inhibition) KATO III” value [1] was “A (A = 80-100% inhibition)”, the “MTS cell kill data (% inhibition) DLD-1” value [2] was “A (A = 80-100% inhibition)” and the “MTS cell kill data (% inhibition) MDA-MB-231” value [3] was “B (B = 50-79% inhibition)”. The “MTS cell kill data (% inhibition) NCI-H1299” value [4] was “A (A = 80-100% inhibition)”, the “MTS cell kill data (% inhibition) PACA-2” value [5] was “A (A = 80-100% inhibition)” and the “MTS cell kill data (% inhibition) PC-3” value [6] was “B (B = 50-79% inhibition)”.
With `CN(C)CCCCNc1ncc2c(n1)-c1ccccc1C(c1ccc(NS(=O)(=O)c3cccc(C(F)(F)F)c3)cc1)C2` (stereo not drawn) [Example 430, N-[4-(2-{[4-(dimethylamino)butyl]amino}-5,6-dihydrobenzo[h]quinazolin-6-yl)phenyl]-3-(trifluoromethyl)benzenesulfonamide] the “MTS cell kill data (% inhibition) KATO III” value [1] was “A (A = 80-100% inhibition)”, the “MTS cell kill data (% inhibition) DLD-1” value [2] was “A (A = 80-100% inhibition)” and the “MTS cell kill data (% inhibition) MDA-MB-231” value [3] was “A (A = 80-100% inhibition)”. For the same molecule, the “MTS cell kill data (% inhibition) NCI-H1299” value [4] was “A (A = 80-100% inhibition)”, the “MTS cell kill data (% inhibition) PACA-2” value [5] was “A (A = 80-100% inhibition)” and the “MTS cell kill data (% inhibition) PC-3” value [6] was “A (A = 80-100% inhibition)”.
For `COCC(=O)Nc1ccc(C2Cc3cnc(NCCCCN(C)C)nc3-c3ccccc32)cc1` (stereo not drawn) [Example 471, N-[4-(2-{[4-(dimethylamino)butyl]amino}-5,6-dihydrobenzo[h]quinazolin-6-yl)phenyl]-2-methoxyacetamide], the “MTS cell kill data (% inhibition) KATO III” value [1] was “A (A = 80-100% inhibition)”, the “MTS cell kill data (% inhibition) DLD-1” value [2] was “A (A = 80-100% inhibition)” and the “MTS cell kill data (% inhibition) MDA-MB-231” value [3] was “A (A = 80-100% inhibition)”. The “MTS cell kill data (% inhibition) NCI-H1299” value [4] was “A (A = 80-100% inhibition)”, the “MTS cell kill data (% inhibition) PACA-2” value [5] was “A (A = 80-100% inhibition)” and the “MTS cell kill data (% inhibition) PC-3” value [6] was “C (C = <50% inhibition)”.
`CN(C)CCCCNc1ncc2c(n1)-c1ccccc1C(c1ccc(NS(=O)(=O)c3ccc(Br)s3)cc1)C2` (stereo not drawn) [Example 427, 5-bromo-N-[4-(2-{[4-(dimethylamino)butyl]amino}-5,6-dihydrobenzo[h]quinazolin-6-yl)phenyl]thiophene-2-sulfonamide] was tested, and the “MTS cell kill data (% inhibition) KATO III” value [1] was “A (A = 80-100% inhibition)”, the “MTS cell kill data (% inhibition) DLD-1” value [2] was “A (A = 80-100% inhibition)” and the “MTS cell kill data (% inhibition) MDA-MB-231” value [3] was “A (A = 80-100% inhibition)”. The “MTS cell kill data (% inhibition) NCI-H1299” value [4] was “A (A = 80-100% inhibition)”, the “MTS cell kill data (% inhibition) PACA-2” value [5] was “A (A = 80-100% inhibition)” and the “MTS cell kill data (% inhibition) PC-3” value [6] was “B (B = 50-79% inhibition)”.
In the case of `CN1CCN(CCCNc2ncc3c(n2)-c2ccccc2C(c2ccc(NCc4ccc5c(c4)CCO5)cc2)C3)CC1` (stereo not drawn) [Example 572, 6-{4-[(2,3-dihydro-1-benzofuran-5-ylmethyl)amino]phenyl}-N-[3-(4-methylpiperazin-1-yl)propyl]-5,6-dihydrobenzo[h]quinazolin-2-amine], the “MTS cell kill data (% inhibition) KATO III” value [1] is reported as “A (A = 80-100% inhibition)”, the “MTS cell kill data (% inhibition) DLD-1” value [2] is reported as “A (A = 80-100% inhibition)” and the “MTS cell kill data (% inhibition) MDA-MB-231” value [3] is reported as “A (A = 80-100% inhibition)”. For the same molecule, the “MTS cell kill data (% inhibition) NCI-H1299” value [4] was “A (A = 80-100% inhibition)” and the “MTS cell kill data (% inhibition) PACA-2” value [5] was “A (A = 80-100% inhibition)”.
With `N#Cc1cccc(NC(=O)N2CCC3(CC2)Cc2cnc(Nc4ccc(N5CCNCC5)cc4)nc2-c2ccccc23)c1` [Example 412, N-(3-cyanophenyl)-2-[(4-piperazin-1-ylphenyl)amino]-1′H,5H-spiro[benzo[h]quinazoline-6,4′-piperidine]-1′-carboxamide] the “MTS cell kill data (% inhibition) KATO III” value [1] was “A (A = 80-100% inhibition)”, the “MTS cell kill data (% inhibition) DLD-1” value [2] was “A (A = 80-100% inhibition)” and the “MTS cell kill data (% inhibition) MDA-MB-231” value [3] was “A (A = 80-100% inhibition)”. For the same molecule, the “MTS cell kill data (% inhibition) NCI-H1299” value [4] was “A (A = 80-100% inhibition)” and the “MTS cell kill data (% inhibition) PACA-2” value [5] was “A (A = 80-100% inhibition)”.
With `N#Cc1cccc(NC(=O)N2CCC3(CC2)Cc2cnc(Nc4ccc(CCO)cc4)nc2-c2ccccc23)c1` [Example 413, N-(3-cyanophenyl)-2-{[4-(2-hydroxyethyl)phenyl]amino}-1′H,5H-spiro[benzo[h]quinazoline-6,4′-piperidine]-1′-carboxamide] the “MTS cell kill data (% inhibition) KATO III” value [1] was “A (A = 80-100% inhibition)”, the “MTS cell kill data (% inhibition) DLD-1” value [2] was “A (A = 80-100% inhibition)” and the “MTS cell kill data (% inhibition) MDA-MB-231” value [3] was “A (A = 80-100% inhibition)”. The “MTS cell kill data (% inhibition) NCI-H1299” value [4] was “B (B = 50-79% inhibition)” and the “MTS cell kill data (% inhibition) PACA-2” value [5] was “A (A = 80-100% inhibition)”.
For `CN1CCN(CCCNc2ncc3c(n2)-c2ccccc2C(c2ccc(NCc4ccccc4F)cc2)C3)CC1` (stereo not drawn) [Example 574, 6-{4-[(2-fluorobenzyl)amino]phenyl}-N-[3-(4-methylpiperazin-1-yl)propyl]-5,6-dihydrobenzo[h]quinazolin-2-amine], the “MTS cell kill data (% inhibition) KATO III” value [1] was “A (A = 80-100% inhibition)”, the “MTS cell kill data (% inhibition) DLD-1” value [2] was “A (A = 80-100% inhibition)” and the “MTS cell kill data (% inhibition) MDA-MB-231” value [3] was “A (A = 80-100% inhibition)”. For the same molecule, the “MTS cell kill data (% inhibition) NCI-H1299” value [4] was “A (A = 80-100% inhibition)” and the “MTS cell kill data (% inhibition) PACA-2” value [5] was “A (A = 80-100% inhibition)”.
For `N#Cc1cccc(NC(=O)N2CCC3(CC2)Cc2cnc(Nc4ccc(CO)cc4)nc2-c2ccccc23)c1` [Example 414, N-(3-cyanophenyl)-2-{[4-(hydroxymethyl)phenyl]amino}-1′H,5H-spiro[benzo[h]quinazoline-6,4′-piperidine]-1′-carboxamide], the “MTS cell kill data (% inhibition) KATO III” value [1] was “A (A = 80-100% inhibition)”, the “MTS cell kill data (% inhibition) DLD-1” value [2] was “B (B = 50-79% inhibition)” and the “MTS cell kill data (% inhibition) MDA-MB-231” value [3] was “B (B = 50-79% inhibition)”. The “MTS cell kill data (% inhibition) NCI-H1299” value [4] was “B (B = 50-79% inhibition)” and the “MTS cell kill data (% inhibition) PACA-2” value [5] was “A (A = 80-100% inhibition)”.
With `CNc1ncc2c(n1)-c1ccccc1C1(CCN(C(=O)Nc3cccc(Cl)c3)CC1)C2` [Example 408, N-(3-chlorophenyl)-2-(methylamino)-1′H,5H-spiro[benzo[h]quinazoline-6,4′-piperidine]-1′-carboxamide] the “MTS cell kill data (% inhibition) KATO III” value [1] was “A (A = 80-100% inhibition)”, the “MTS cell kill data (% inhibition) DLD-1” value [2] was “A (A = 80-100% inhibition)” and the “MTS cell kill data (% inhibition) MDA-MB-231” value [3] was “C (C = <50% inhibition)”. For the same molecule, the “MTS cell kill data (% inhibition) NCI-H1299” value [4] was “C (C = <50% inhibition)” and the “MTS cell kill data (% inhibition) PACA-2” value [5] was “A (A = 80-100% inhibition)”.
